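96-well plates; 48 h exposure; 5 concentrations. Endpoints by linear interpolation between flanking doses. Not reached: highest tested concentration assigned. GI50: concentration for 50% inhibition of growth.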 Calls of active or inactive are those of the source. Rule as the data show it: active = GI50 up to about 1.1 µM and inactive = higher.
Assays:
Experiment in all cases: growth of human tumour cells (NCI), 48 h
MDA-N = tested on: MDA-N
A498 = tested on: A498
OVCAR-5 = tested on: OVCAR-5
HOP-62 = tested on: HOP-62
ACHN = tested on: ACHN
RXF 393 = tested on: RXF 393
HT-29 = tested on: HT-29
SR = tested on: SR
NCI-H23 = tested on: NCI-H23
SF-268 = tested on: SF-268
U-251 = tested on: U-251
MCF7 = tested on: MCF7
EKVX = tested on: EKVX
Hs-578T = tested on: Hs-578T
OVCAR-3 = tested on: OVCAR-3
HCT-116 = tested on: HCT-116
T47D = tested on: T47D
BT-549 = tested on: BT-549
SNB-75 = tested on: SNB-75

Measured: GI50

CC(C)(C)OC(=O)CCC1NC(=O)[C@@H]2Cc3c([nH]c4ccccc34)C(C3CCCCC3)N2C1=O (stereo partly drawn)
inactive: MDA-N 24.5 µM | A498 60.5 µM | OVCAR-5 53.2 µM | HOP-62 35.6 µM | ACHN 33.3 µM | RXF 393 20 µM | HT-29 18.6 µM | SR 15.5 µM | NCI-H23 39.6 µM | SF-268 31.4 µM | U-251 27 µM | MCF7 26.7 µM | EKVX 41.7 µM | Hs-578T 20.8 µM | OVCAR-3 26.2 µM | HCT-116 27 µM | T47D 27.9 µM | BT-549 48.8 µM

N#CCCC(C=O)(CCC#N)CCC#N
inactive: MDA-N > 100 µM | A498 > 100 µM | OVCAR-5 > 100 µM | ACHN > 100 µM | SNB-75 > 100 µM | RXF 393 > 100 µM | HT-29 > 100 µM | SR > 100 µM | NCI-H23 > 100 µM | SF-268 > 100 µM | U-251 > 100 µM | MCF7 > 100 µM | EKVX > 100 µM | Hs-578T > 100 µM | OVCAR-3 > 100 µM | HCT-116 > 100 µM | T47D > 100 µM | BT-549 > 100 µM

O=c1c2cc3c(cc2[nH]c2ncccc12)OCO3
inactive: MDA-N > 10 µM | A498 > 10 µM | OVCAR-5 > 10 µM | HOP-62 > 10 µM | ACHN > 10 µM | SNB-75 > 10 µM | RXF 393 > 10 µM | HT-29 > 10 µM | SR > 10 µM | NCI-H23 > 10 µM | SF-268 > 10 µM | U-251 > 10 µM | MCF7 > 10 µM | EKVX > 10 µM | Hs-578T > 10 µM | OVCAR-3 > 10 µM | HCT-116 > 10 µM | T47D > 10 µM | BT-549 > 10 µM

O=S(=O)(c1ccccc1)[C@@H]1[C@H]2C=C[C@](CS)(O2)[C@H]1S(=O)(=O)c1ccccc1
inactive: MDA-N 82.8 µM | A498 > 100 µM | OVCAR-5 > 100 µM | HOP-62 > 100 µM | ACHN 76.9 µM | SNB-75 67.5 µM | RXF 393 43.6 µM | HT-29 > 100 µM | SR 25.6 µM | NCI-H23 79.6 µM | SF-268 > 100 µM | U-251 > 100 µM | MCF7 62.5 µM | EKVX 78.9 µM | Hs-578T > 100 µM | OVCAR-3 19.1 µM | HCT-116 13.3 µM | T47D 84.3 µM | BT-549 35.2 µM

COC(=O)C(NC(=O)c1ccccc1)c1ccco1 (stereo not drawn)
inactive: MDA-N > 100 µM | A498 > 100 µM | OVCAR-5 > 100 µM | HOP-62 > 100 µM | ACHN > 100 µM | SNB-75 > 100 µM | RXF 393 > 100 µM | HT-29 > 100 µM | SR > 100 µM | NCI-H23 > 100 µM | SF-268 > 100 µM | U-251 > 100 µM | MCF7 > 100 µM | EKVX > 100 µM | Hs-578T > 100 µM | OVCAR-3 > 100 µM | HCT-116 > 100 µM | T47D > 100 µM | BT-549 > 100 µM

C=C1C(=O)OC2CC3(CO3)C3C(O)C(O)CC3(C)CC12 (stereo not drawn)
inactive: MDA-N 23.4 µM | A498 28.4 µM | OVCAR-5 27.7 µM | HOP-62 61.9 µM | ACHN 19.7 µM | SNB-75 49.8 µM | RXF 393 16.7 µM | HT-29 30.5 µM | SR 20.8 µM | NCI-H23 22.3 µM | SF-268 40.3 µM | U-251 43 µM | MCF7 21 µM | EKVX 18.3 µM | Hs-578T 81.3 µM | OVCAR-3 21.9 µM | HCT-116 18.2 µM | T47D 30.9 µM | BT-549 18.1 µM

CN(C)Cc1cc(/N=N/c2ccc(Cl)cc2)cc(CN(C)C)c1O
inactive: MDA-N 13.2 µM | A498 14.7 µM | HOP-62 2.58 µM | ACHN 6.43 µM | SNB-75 10.9 µM | RXF 393 9.44 µM | HT-29 6.62 µM | SR 4.59 µM | NCI-H23 21.2 µM | SF-268 10.8 µM | U-251 7.24 µM | MCF7 7.87 µM | EKVX > 10 µM | Hs-578T 11.3 µM | OVCAR-3 1.84 µM | HCT-116 4.85 µM | T47D 10.5 µM | BT-549 11 µM

C=C(C)[C@@H]1CC[C@]2(C)CC[C@]3(C)[C@H](CC[C@@H]4[C@@]5(C)CC[C@H](OC(=O)c6ccccc6)C(C)(C)[C@@H]5CC[C@]43C)[C@@H]12
inactive: MDA-N > 100 µM | A498 > 100 µM | OVCAR-5 > 100 µM | HOP-62 > 100 µM | ACHN > 100 µM | SNB-75 90.8 µM | HT-29 > 100 µM | SR 48.2 µM | NCI-H23 > 100 µM | SF-268 > 100 µM | U-251 > 100 µM | MCF7 > 100 µM | EKVX > 100 µM | Hs-578T > 100 µM | OVCAR-3 > 100 µM | HCT-116 > 100 µM | T47D > 100 µM | BT-549 > 100 µM

C=CCOC(=O)C1C2OC3(C(C(=O)OC)=C2C(=O)OC)c2ccccc2CCC13 (stereo not drawn)
inactive: MDA-N > 10 µM | A498 > 10 µM | OVCAR-5 > 10 µM | HOP-62 > 10 µM | ACHN > 10 µM | RXF 393 > 10 µM | HT-29 > 10 µM | SR > 10 µM | NCI-H23 > 10 µM | SF-268 > 10 µM | U-251 > 10 µM | MCF7 > 10 µM | EKVX > 10 µM | Hs-578T > 10 µM | OVCAR-3 > 10 µM | HCT-116 > 10 µM | T47D > 10 µM | BT-549 > 10 µM

COC(=O)C1CCOC(C)N1C(=O)OC(C)(C)C (stereo not drawn)
inactive: MDA-N > 100 µM | OVCAR-5 > 100 µM | HOP-62 > 100 µM | ACHN > 100 µM | SNB-75 > 100 µM | RXF 393 > 100 µM | HT-29 > 100 µM | SR > 100 µM | NCI-H23 > 100 µM | SF-268 > 100 µM | U-251 > 100 µM | MCF7 > 100 µM | EKVX > 100 µM | Hs-578T > 100 µM | OVCAR-3 > 100 µM | HCT-116 > 100 µM | T47D > 100 µM | BT-549 > 100 µM

COc1ccc2nc3cc([N+](=O)[O-])ccc3c(Nc3ccc(S(=O)(=O)NC(C)=O)cc3)c2c1
inactive: MDA-N > 100 µM | A498 > 100 µM | OVCAR-5 > 100 µM | HOP-62 > 100 µM | ACHN 88.1 µM | RXF 393 > 100 µM | HT-29 65 µM | SR 11.5 µM | NCI-H23 > 100 µM | SF-268 > 100 µM | U-251 44.8 µM | MCF7 30.8 µM | EKVX 85.3 µM | Hs-578T 85.9 µM | OVCAR-3 38.1 µM | HCT-116 44 µM | T47D > 100 µM | BT-549 > 100 µM

COc1cc(S(=O)(=O)Nc2ccc(-c3csc(N4C(=O)C(C)SC4c4ccccc4)n3)cc2)ccc1Cl (stereo not drawn)
active: SNB-75 0.0555 µM | Hs-578T 0.794 µM
inactive: MDA-N 19.5 µM | A498 58.6 µM | OVCAR-5 > 100 µM | ACHN > 100 µM | RXF 393 15.5 µM | HT-29 11.8 µM | SR 25 µM | NCI-H23 51.4 µM | SF-268 19.7 µM | MCF7 17.9 µM | EKVX 7.52 µM | OVCAR-3 > 100 µM | HCT-116 34.8 µM | T47D 15.2 µM | BT-549 20.9 µM

COc1ccc(C(=O)N(C(=O)N2CCN(c3ccccc3)CC2)S(=O)(=O)c2ccccc2)cc1
inactive: MDA-N 23.9 µM | A498 53.8 µM | OVCAR-5 24.7 µM | HOP-62 35 µM | ACHN 18.8 µM | SNB-75 32.7 µM | HT-29 28.1 µM | SR 18.8 µM | NCI-H23 24.1 µM | SF-268 31.8 µM | U-251 18.1 µM | MCF7 29.6 µM | EKVX 20.7 µM | Hs-578T 25.1 µM | OVCAR-3 37.8 µM | HCT-116 18.8 µM | T47D 23 µM | BT-549 33.3 µM

CCN(CC)CCCC(C)Nc1cc(/C=C/c2ccc(Cl)cc2)nc2cc(N(C)C)ccc12 (stereo not drawn)
inactive: MDA-N 1.47 µM | A498 1.69 µM | OVCAR-5 1.94 µM | HOP-62 1.89 µM | ACHN 2.11 µM | RXF 393 1.61 µM | HT-29 1.34 µM | SR 1.25 µM | NCI-H23 1.76 µM | SF-268 1.83 µM | U-251 1.64 µM | MCF7 1.34 µM | EKVX 1.73 µM | Hs-578T 2.37 µM | OVCAR-3 1.7 µM | HCT-116 1.24 µM | T47D 1.66 µM | BT-549 1.65 µM

BrCC[P+](c1ccccc1)(c1ccccc1)c1ccccc1
active: EKVX 0.792 µM
inactive: MDA-N 2.61 µM | A498 11.4 µM | OVCAR-5 10.8 µM | HOP-62 6.68 µM | ACHN 3.18 µM | SNB-75 3.23 µM | RXF 393 2.43 µM | HT-29 13.3 µM | SR 4.93 µM | SF-268 2.13 µM | U-251 3.87 µM | MCF7 13.5 µM | Hs-578T 20.4 µM | OVCAR-3 2.59 µM | HCT-116 2.28 µM | T47D 1.27 µM | BT-549 14.9 µM

Reference: ChEMBL document CHEMBL1201862, “PubChem BioAssay data set” (2004)
